Test results taken from patent US8952030B2, “Morphinan derivative” (priority 2011, dated 2015).
pEC50: −log10 of the molar value. Read-outs that look alike come from different tables or passages of the source.

Columns and labels:
[1] = target: T1, opioid δ receptor (Homo sapiens, UniProt P41143); assay: Opioid receptor functional test (Lance Ultra cAMP Kit), δ receptor agonist activity; type: cell-based; conditions: for Emax: read-out: δ Receptor Emax
T1 construct: expressed in transfected cells; host or cells: CHO cells
T1 sequence (P41143 whole entry): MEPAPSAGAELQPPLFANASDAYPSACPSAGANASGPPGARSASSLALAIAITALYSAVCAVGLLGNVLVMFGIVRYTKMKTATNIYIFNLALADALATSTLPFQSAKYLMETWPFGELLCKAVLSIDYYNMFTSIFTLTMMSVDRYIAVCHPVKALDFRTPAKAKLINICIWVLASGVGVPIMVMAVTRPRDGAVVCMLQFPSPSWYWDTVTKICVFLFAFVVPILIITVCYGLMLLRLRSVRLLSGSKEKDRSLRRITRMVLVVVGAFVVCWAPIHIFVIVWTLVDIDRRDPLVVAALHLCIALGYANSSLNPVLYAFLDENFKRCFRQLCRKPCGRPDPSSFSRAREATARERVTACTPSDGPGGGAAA
Protocol: (§1) Functional activities of the compounds of the present invention for the μ, […], and κ opioid receptors were investigated.
(§2) The test was performed according to a prescribed method by using Lance Ultra cAMP Kit (Perkin-Elmer). The agonist activities were evaluated as follows. The CHO cells expressing each opioid receptor (μ, δ, or κ) and a test compound were reacted in an assay buffer (1×HBSS, […], pH 7.4, […] IBMX (isobutylmethylxanthine), 7.5% BSA) for 30 minutes in the presence of 10 μM forskolin. Then, the cAMP detection reagent included in the kit was added, and after 1 hour, time-resolved fluorescence measurements were performed by using the EnVision plate reader (Perkin-Elmer). A dose-responce curve of the test compound was obtained from fluorescence values measured at 665 nm, and EC50 value and Emax value were calculated. The Emax value was calculated as a ratio of the maximum responce of the test compound with respect to the maximum responce of each control agent (SNC80 for δ, DAMGO for μ, U-69593 for κ) taken as 100%.
(§3) 1): Hydrochloride was used.

[2] = target: T2, opioid μ receptor (Homo sapiens, UniProt P35372); assay: Opioid receptor functional test (Lance Ultra cAMP Kit), μ receptor agonist activity; type: cell-based; conditions: hydrochloride was used; for Emax at 10 µM: maximum concentration (10 μM), reaction did not reach the maximum, EC50 N.C., relative to DAMGO, read-out: μ Receptor responce rate at the maximum concentration (reference value); for pEC50: CHO cells expressing μ opioid receptor, 10 μM forskolin, cAMP; for Emax: maximum response relative to DAMGO taken as 100%, read-out: μ Receptor Emax
T2 construct: expressed in transfected cells; host or cells: CHO cells
T2 sequence (P35372 whole entry): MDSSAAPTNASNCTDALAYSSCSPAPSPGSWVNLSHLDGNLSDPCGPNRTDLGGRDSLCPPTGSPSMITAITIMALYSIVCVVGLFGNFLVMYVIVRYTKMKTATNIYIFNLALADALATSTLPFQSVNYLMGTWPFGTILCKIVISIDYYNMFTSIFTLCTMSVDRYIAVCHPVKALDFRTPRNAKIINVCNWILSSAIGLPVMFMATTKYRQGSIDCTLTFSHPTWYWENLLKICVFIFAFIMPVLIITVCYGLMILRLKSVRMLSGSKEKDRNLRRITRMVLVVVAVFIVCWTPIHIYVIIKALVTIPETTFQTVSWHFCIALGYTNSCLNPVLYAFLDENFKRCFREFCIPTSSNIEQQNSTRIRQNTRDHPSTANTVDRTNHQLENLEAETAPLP
Protocol: as §1, §2, §3

[3] = target: T3, opioid κ receptor (Homo sapiens, UniProt P41145); assay: Opioid receptor functional test (Lance Ultra cAMP Kit), κ receptor agonist activity; type: cell-based; conditions: hydrochloride was used; for Emax at 10 µM: maximum concentration (10 μM), reaction did not reach the maximum, EC50 N.C., relative to U-69593, read-out: κ Receptor responce rate at the maximum concentration (reference value); for pEC50: CHO cells expressing κ opioid receptor, 10 μM forskolin, cAMP, read-out: κ Receptor EC50 value; for Emax: maximum response relative to U-69593 taken as 100%, read-out: κ Receptor Emax
T3 construct: expressed in transfected cells; host or cells: CHO cells
T3 sequence (P41145 whole entry): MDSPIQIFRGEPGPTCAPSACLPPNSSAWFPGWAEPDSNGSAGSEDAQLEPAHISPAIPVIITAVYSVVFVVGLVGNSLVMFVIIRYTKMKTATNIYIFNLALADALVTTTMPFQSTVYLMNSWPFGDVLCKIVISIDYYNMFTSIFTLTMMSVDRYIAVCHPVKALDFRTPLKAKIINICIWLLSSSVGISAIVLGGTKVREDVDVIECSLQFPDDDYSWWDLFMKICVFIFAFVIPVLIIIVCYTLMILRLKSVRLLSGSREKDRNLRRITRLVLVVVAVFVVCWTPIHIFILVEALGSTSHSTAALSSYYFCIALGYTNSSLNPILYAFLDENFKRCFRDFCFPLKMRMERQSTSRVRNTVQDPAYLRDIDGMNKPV
Protocol: as §1, §2, §3

[4] = tested on: ICR male mice; assay: Analgesic activity (acetic acid writhing method); type: in vivo; conditions: Mus musculus, sc; 3 mg/kg subcutaneous, 0.6% acetic acid i.p., writhing inhibition rate vs solvent group; hydrochloride was used; read-out: Inhibitory activities against writhing
Protocol: ICR male mice were used as groups each consisting of eight mice. Twenty minutes after the subcutaneous administration of a test compound (3 mg/kg), a 0.6% aqueous solution of acetic acid was intraperitoneally administered (0.1 mL/10 g body weight), and from the point 5 minutes after the administration, number of writhing observed over 20 minutes was counted. The analgesic activity was evaluated on the basis of the writhing inhibition rate (% inhibition) of the test compound administration group with respect to the writhing number of the solvent administration group.
1): Hydrochloride was used. 2): The evaluation results of the inhibitory activities against writhing were classified on the basis of the inhibition rate as follows. ≧90%, +++; 70≦%<90, ++; 50≦%<70, +

[5] = CHO cells expressing δ opioid receptor, 10 μM forskolin, cAMP, hydrochloride was used, read-out: δ Receptor EC50 value
[6] = maximum response relative to SNC80 taken as 100%, hydrochloride was used

Compound | pEC50 [1] | Emax [1] [%] | Emax at 10 µM [2] [%] | Emax at 10 µM [3] [%] | inhibition in vivo at 3 mg/kg [4] [%] | pEC50 [1, 5] | Emax [1, 6] [%] | pEC50 [3] | Emax [3] [%] | pEC50 [2] | Emax [2] [%]
O=C(c1ccccc1)N1C[C@H]2C[C@@]34CC[C@@H]1[C@@H]2[C@@]31CCN(CC2CC2)[C@@H]4Cc2ccc(O)cc21 [Compound 78, [(1S,3aR,5aS,6R,11bR,11cS)-14-(cyclopropylmethyl)-10-hydroxy-1,2,3a,4,5,6,7,11c-octahydro-3H-6,11b-(iminoethano)-1,5a-methanonaphtho[1,2-e]indol-3-yl](phenyl)methanone] | > 9.00 | 83 | 4.7 | 5.5 | 50 to 70 |  |  |  |  |  | 
O=C(c1cccc(Cl)c1)N1C[C@H]2C[C@@]34CC[C@@H]1[C@@H]2[C@@]31CCN(CC2CC2)[C@@H]4Cc2ccc(O)cc21 [Compound 79, (3-chlorophenyl)[(1S,3aR,5aS,6R,11bR,11cS)-14-(cyclopropylmethyl)-10-hydroxy-1,2,3a,4,5,6,7,11c-octahydro-3H-6,11b-(iminoethano)-1,5a-methanonaphtho[1,2-e]indol-3-yl]methanone] |  |  | 8.8 | 9.6 | 70 to 90 | > 9.00 | 75 |  |  |  | 
CC(C)NC(=O)N1C[C@H]2CC34CCC1C2C31CCN(CC2CC2)C4Cc2ccc(O)cc21 (stereo partly shown) [Compound 159] |  |  | 2.8 |  | 70 to 90 | > 9.00 | 76 | > 9.00 | 37 |  | 
Cc1cc(C)nc(N2C[C@H]3C[C@@]45CCC2C3[C@@]42CCN(CC3CC3)[C@@H]5Cc3ccc(O)cc32)n1 (stereo partly drawn) [Compound 223, (1S,5aS,6R,11bR)-14-(cyclopropylmethyl)-3-(4,6-dimethylpyrimidin-2-yl)-2,3,3a,4,5,6,7,11c-octahydro-1H-6,11b-(iminoethano)-1,5a-methanonaphtho[1,2-e]indol-10-ol] |  |  |  |  | ≥ 90 |  |  |  |  |  | 
Oc1ccc2c(c1)C13CCN(CC4CC4)C(C2)C12CCC1C3[C@@H](CN1c1cc(F)ccn1)C2 (stereo partly shown) [Compound 239] |  |  |  |  | ≥ 90 |  |  |  |  |  | 
Oc1ccc2c(c1)C13CCN(CC4CC4)C(C2)C12CCC1C3[C@@H](CN1c1ccc3ccccc3n1)C2 (stereo partly shown) [Compound 243] |  |  |  |  | 70 to 90 |  |  |  |  |  | 
Oc1ccc2c(c1)C13CCN(CC4CC4)C(C2)C12CCC1C3[C@@H](CN1c1cnccn1)C2 (stereo partly shown) [Compound 257] |  |  |  |  | 70 to 90 |  |  |  |  |  | 
Cc1cc(C)nc(N2C[C@H]3C[C@@]45CCC2C3[C@@]42CCN(CC3CC3)[C@@H]5Cc3cccc(O)c32)n1 (stereo partly drawn) [Compound 293, (1S,5aS,6R,11bS)-14-(cyclopropylmethyl)-3-(4,6-dimethylpyrimidin-2-yl)-2,3,3a,4,5,6,7,11c-octahydro-1H-6,11b-(iminoethano)-1,5a-methanonaphtho[1,2-e]indol-11-ol] |  |  |  |  |  | > 8.00 | 91 | < 7.30 | 51 | < 7.30 | 17
O=C(c1ccccc1)N1C[C@H]2C[C@@]34CCC1C2[C@@]31CCN(CC2CC2)[C@@H]4Cc2ccccc21 (stereo partly drawn) [Compound 298, [(1S,5aS,6R,11bR)-14-(Cyclopropylmethyl)-4,5,6,7-tetrahydro-1H-6,11b-(iminoethano)-1,5a-methanonaphtho[1,2-e]indol-3(2H,3aH,11cH)-yl](phenyl)methanone] |  |  |  |  | ≥ 90 | > 8.00 | 102 | < 7.00 | 32 | < 7.30 | 16
Cc1cc(C)nc(N2C[C@H]3CC45CCC2C3C42CCN(CC3CC3)C5Cc3ccccc32)n1 (stereo partly shown) [Compound 300] |  |  |  |  |  | > 7.30 | 105 | < 6.30 | 39 | < 7.00 | 26
NC(=O)c1ccc2c(c1)[C@]13CCN(CC4CC4)[C@H](C2)[C@]12CCC1C3[C@@H](CN1C(=O)c1ccccc1)O2 (stereo partly drawn) [Compound 306, (1S,5aS,6R,11bR)-3-benzoyl-14-(cyclopropylmethyl)-2,3,3a,4,5,6,7,11c-octahydro-1H-6,11b-(iminoethano)-1,5a-epoxynaphtho[1,2-e]indole-10-carboxamide] |  |  | 2.8 | 9.5 |  | > 8.00 | 84 |  |  |  | 
Nc1ccc2c(c1)[C@]13CCN(CC4CC4)[C@H](C2)[C@]12CCC1C3[C@@H](CN1C(=O)c1ccccc1)O2 (stereo partly drawn) [Compound 308, [(1S,5aS,6R,11bR)-10-Amino-14-(cyclopropylmethyl)-4,5,6,7-tetrahydro-1H-6,11b-(iminoethano)-1,5a-epoxynaphtho[1,2-e]indol-3(2H,3aH,11cH)-yl](phenyl)methanone] |  |  | 2.5 |  |  | > 8.00 | 94 | < 7.00 | 38 |  | 
COc1cc2c(cc1[N+](=O)[O-])C[C@H]1N(CC3CC3)CC[C@@]23C2C4CC[C@@]13C[C@@H]2CN4c1nc(C)cc(C)n1 (stereo partly drawn) [Compound 311, (1S,5aS,6R,11bR)-14-(cyclopropylmethyl)-3-(4,6-dimethylpyrimidin-2-yl)-10-methoxy-9-nitro-2,3,3a,4,5,6,7,11c-octahydro-1H-6,11b-(iminoethano)-1,5a-methanonaphtho[1,2-e]indole] |  |  |  |  |  | > 7.30 | 82 | < 6.30 | 16 | < 7.00 | 18
Oc1ccc2c(c1)C13C(O)CN(CC4CC4)C(C2)C12CCC1C3[C@@H](CN1Cc1ccccc1)O2 (stereo partly drawn) [Compound 329, (1S,3aR,5aS,6R,11bS,11cS,12R)-3-Benzyl-14-(cyclopropylmethyl)-1,2,3a,4,5,6,7,11c-octahydro-1H-6,11b-(iminoethano)-1,5a-epoxynaphtho[1,2-e]indole-10,12-diol] |  |  | 0.9 |  |  | > 9.00 | 76 | < 8.00 | 14 |  | 
C[C@H]1[C@H]2C[C@@]34CC[C@H]([C@@H]2[C@]32CCN(CC3CC3)[C@@H]4Cc3ccc(O)cc32)N1C(=O)c1ccccc1 [Compound 334, [(1S,2S,3aR,5aS,6R,11bS,11cS)-14-(Cyclopropylmethyl)-10-hydroxy-2-methyl-1,2,3a,4,5,6,7,11c-octahydro-3H-6,11b-(iminoethano)-1,5a-methanonaphtho[1,2-e]indol-3-yl](phenyl)methanone] |  |  | 2.9 |  |  | > 9.00 | 87 | < 9.00 | 39 |  | 
